PMC12628291 (Inorganic Chemistry, 2025)
Like-named read-outs stand apart in the source and are kept apart here.

Experiments:
[1] = DLS particle size distribution in Tris-HCl buffer; assay type: physicochemical; details: 20 μM
Source text: Given the amphiphilic nature of the complexes, with the functionalized phenanthroline ligand serving as a lipophilic tail and the Ru(II) core serving as a hydrophilic headgroup, it was of interest to investigate the potential tendency of the complexes to form micelle-like aggregates in aqueous solutions. […] Our focus was to investigate the aggregation behavior in a purely aqueous environment, without the use of cosolvents such as DMSO. Since complexes 5–7 could not be solubilized under these conditions, they were not included in the DLS analysis.
The particle size distribution of the complexes was determined by dynamic light scattering (DLS) using a Particle Analyzer Litesizer 500 (Anton Paar, Austria) at 25 °C. 20 μM solutions of complexes 1–4 and of [Ru(bpy)3]-Cl2 in Tris-HCl buffer, as well as 20 μM solutions of complexes 1–4 in Gibco DMEM (Dulbecco’s Modified Eagle Medium with high glucose, L-glutamine, pyruvate, 10% FBS, and without phenol red), were analyzed by DLS. The experiments were performed in triplicate, yielding similar results.

[2] = UV-vis absorption, emission spectra and luminescence quantum yield; assay type: physicochemical; details: for Φ (luminescence quantum yield): air-equilibrated; for λem: excitation 450 nm
Protocol: We studied the absorption and emission properties of the complexes in different solvents including MeCN, MeOH, and Tris-HCl aqueous buffer (0.05 M, pH 7.4). Due to solubility limitations, only complexes 1–4 were studied in Tris-HCl aqueous buffer. Indicatively, the comparative UV–vis absorption and emission spectra of complexes 4 and 7 in MeCN at 298 K are presented in Figure e.
The photophysical data are summarized in Tables and , and all measurements were conducted in air-equilibrated solvents.
(§1) ^1H, ^1H–^1H COSY, and ^13C NMR spectra were recorded on a 500 MHz NMR spectrometer (Agilent). Absorption spectra were acquired by using a JASCO V-750 spectrophotometer. For recording the emission spectra, we used an Edinburgh Instruments FS5 spectrofluorometer equipped with a red-sensitive Hamamatsu R13456 photomultiplier tube (PMT) and a 150 W xenon arc lamp as the light source. All spectra were corrected for detector response using the correction files and software (Fluoracle) provided by the manufacturer. The luminescence quantum yields of the complexes were calculated using the optically dilute method with an air-equilibrated aqueous solution of [Ru(bpy)3]-Cl2 (Φem = 0.049, λex = 436 nm) as the standard solution. , Emission lifetime measurements were performed using an Edinburgh Instruments mini-τ lifetime spectrometer with a bandpass filter (±40 nm bandpass) at 650 nm. The excitation source was an Edinburgh Instruments picosecond pulsed LED (EPLED-320) with a peak wavelength of 326.8 nm and a pulse width of 910 ps. The detector was a thermoelectrically cooled, high-speed, red-sensitive photomultiplier tube (Hamamatsu H10720-01). The data were analyzed by using the software provided by the manufacturer (Fluoracle). For emission lifetime calculations, the experiments were performed in triplicate, yielding similar results. The MS spectra were acquired using an LC20AD Shimadzu connected to Shimadzu LCMS-2010EV, with a flow rate of 0.4 mL/min MeOH or MeCN + 0.1% formic acid. LCMS analysis was carried out on an Agilent 1260 Infinity with a Raptor C18 column (50 mm × 2.1 mm, 2.7 μm particle size). A two-minute gradient from 5% to 95% MeCN in water was used, supplemented with 0.1% formic acid.

[3] = Emission lifetime (time-resolved luminescence decay); assay type: physicochemical
Protocol: Given the changes in the aggregation profiles of the complexes in cell culture medium containing FBS, as observed by DLS analysis, we also examined their emission lifetimes under these conditions (Table and Figure S52F–J). For this analysis, an 80 μM solution of each complex was utilized to achieve an improved signal-to-background ratio. […] However, the emission decay behavior of complexes 2–4 differs markedly from that of the estrogen-free control and from that of [Ru(bpy)3]^2+. In a cell culture medium with 10% FBS, the decay profile of complex 1 can be fitted to a biexponential model, comprising a short-lived component (355 ns, 6.6% contribution), consistent with the monomeric species, and a long-lived component (672 ns, 93.4% contribution) attributable to the aggregated form. […] Consistent with the behavior observed in Tris-HCl buffer, the addition of MeCN to a solution of complex 3 in FBS-containing medium led to aggregate disruption once the MeCN content reached 30%, as evidenced by a decrease in emission lifetime to 436 ns, signaling the dominance of the nonaggregated form (Figure f). Overall, our findings collectively confirm that aggregation correlates with the observed emission enhancement in aqueous solutions and that complexes 1–4 predominantly exist as self-assembled micelle-like aggregates in the cell culture medium used for our cellular studies. Nevertheless, it cannot be unequivocally determined from these experiments whether the complexes preserve their aggregated form in the intracellular environment.
as §1

[4] = test system: MCF-7 (ER+) cells; assay: MTS viability assay (dark and 457 nm light) in MCF-7; assay type: cell-based; details: for IC50: MCF-7, 457 nm for 12 min at 6 h, 24 h incubation, MTS; for SI = selectivity index, [IC50(ER‑)]light/[IC50(ER+)]light: MDA-MB-453 (ER-) vs MCF-7 (ER+)
Protocol: (§2) We determined the cytotoxicity of all the complexes using the well-established MTS assay against two breast cancer cell lines: MCF-7, which is ER+, and MDA-MB-453, which is ER-.
(§3) In this experiment, the cells were irradiated with blue light (457 nm) for 12 min.
(§4) MDA-MB-453 and MCF-7 cells were grown in high-glucose Dulbecco’s Modified Eagle Medium (DMEM) containing 10% fetal bovine serum at 37 °C with 5% CO2 in humidified air.
(§5) For viability experiments, cells were seeded at a density of 20,000 cells per well in Greiner-Bio black μClear plates. After 24 h, the corresponding ruthenium complexes were added at the appropriate concentrations (30 nM to 100 μM for complexes 1-4 and 30 nM to 20 μM for 5–7, < 1% DMSO) and allowed to incubate. For the phototoxicity experiments, the plate was removed at the six-hour time point and irradiated for 12 min using a Lumidox 457 nm 96-LED array set to 8 mA (2 mW/cm^2, a total of 1.2 J/s). After an overall 24 h incubation period, the media were replaced with fresh media containing an MTS/PMS mixture as per the Promega protocol (MTS: 3-(4,5-dimethylthiazol-2-yl)-5-(3-carboxymethoxyphenyl)-2-(4-sulfophenyl)-2H-tetrazolium; PMS: phenazine methosulfate). After an additional 4 h had passed, the absorbance at 490 nm (MTS) and 635 nm (background) was measured. Cell viability was calculated from the dose-response curve of the absorbance (MTS – background).

[5] = test system: MDA-MB-453 (ER-) cells; assay: MTS viability assay (dark and 457 nm light) in MDA-MB-453; assay type: cell-based; details: MDA-MB-453, 457 nm for 12 min at 6 h, 24 h incubation
Protocol: as §2, §3, §4, §5

[6] = set-up: method as in doi:10.1021/ja00432a028; details: H2O; cited from earlier work
[7] = in water; literature value, reference number not given; cited from earlier work
[8] = test system: MCF-7 (ER+) and MDA-MB-453 (ER−) cells; assay: Cellular uptake of ruthenium by ICP-MS; assay type: cell-based; details: 20 μM, 6 h, MCF-7 vs MDA-MB-453
Protocol: Thus, the cellular uptake of complexes 3 and 4 was evaluated and compared to the control complex 1 in ER+ (MCF-7) and ER– (MDA-MB-453) cell lines using inductively coupled plasma mass spectrometry (ICP-MS) (Figure b). […] This trend is consistent with its increased lipophilicity and the brighter red luminescence observed by microscopy for this complex. It is well established that lipophilicity can enhance membrane permeability and cellular internalization.
Cells were seeded at the appropriate density in 6-well plates (1 × 10^6 cells per well for MDA-MB-453 and 400,000 cells per well for MCF-7) and allowed to adhere for 24 h. Ruthenium complexes were added to the wells by direct dilution of a 10 mM DMSO stock solution to yield a final concentration of 20 μM in culture medium. After 6 h of incubation, the medium was removed, and the cells were washed three times with phosphate-buffered saline (PBS) to eliminate extracellular ruthenium. Cells were subsequently detached using trypsin, collected by centrifugation, and counted. […] The monitored isotope was 101Ru. A set of ruthenium calibration standards was used to establish and model the linear relationship between signal and concentration before the samples were injected, signal measured, and averaged across three consecutive signal acquisitions. The amount of metal detected in the cell samples was normalized to ppb per 1,000,000 cells.

[9] = test system: MCF-7 (ER+) cells; assay: Luminescence microscopy of treated ER+ cells; assay type: cell-based; details: Figure S62, 6 h incubation
Protocol: 3 Microscopy imaging of cells incubated with complex 3 (20 μΜ) and complex 4 (10 μΜ) for 6 h: brightfield (left), photosensitizer luminescence (middle), and overlaid (right) images. (b) Cellular uptake by ICP-MS of complexes 1, 3, and 4 (20 μM, 6 h) in MCF-7 (ER+) and MDA-MB-453 (ER−) cells.
For imaging experiments, cells were seeded at a density of 20,000 cells per well in Greiner-Bio black μClear plates. After 24 h, the corresponding ruthenium complexes were added at the appropriate concentrations. After 6 h, the cells were washed 3 times with media, and the media were replaced with phenol-red-free media. Compounds were imaged on an Eclipse-Ti2 Widefield system (Nikon), equipped with a Prime 95B sCMOS camera (Teledyne), pE-400 LED light source (CoolLED), a 20× or 40× objective, and emission filters for green (515/30 nm), orange (600/50 nm), red (641/75 nm), and far-red (705/72 nm). The bright-field channel was used to autofocus each well, after which the complexes were excited using a 450 nm laser and the red emission channel collected.

[10] = Tris-HCl buffer (0.05 M, pH 7.4), 298 K
[11] = Tris-HCl buffer (0.05 M, pH 7.4)
[12] = cell culture medium (DMEM, 10% FBS, no phenol red), 80 μM
[13] = cell culture medium with 10% FBS, biexponential fit

Structure (SMILES)	aggregate size (DLS, particle size distribution by intensity) [1]	Φ (luminescence quantum yield) ([2]; MeCN (298 K))	λabs [2, 10]	λem [2, 10]	τ1 ([3]; MeCN)	τ1 ([3]; MeOH)	τ1 [3, 11]	τ1 [3, 12]	IC50 [4]	SI = selectivity index, [IC50(ER‑)]light/[IC50(ER+)]light [4]	IC50 [5]	further results
[Cl][Ru][Cl].c1ccc(-c2ccccn2)nc1.c1ccc(-c2ccccn2)nc1.c1ccc(-c2ccccn2)nc1 [[Ru(bpy)3]Cl2, reference compound]	no visible aggregates were observed	1.6%	453 nm	630 nm	156 ns	205 ns	329 ns	357 ns	> 100 µM	NPD ^b	> 100 µM	Φ (luminescence quantum yield) [6]: 4.9^55%; 1O2 quantum yield (ΦΔ) [7]: 0.41
CCCCc1cn(-c2cc3cccnc3c3ncccc23)nn1.[Cl-].[Cl-].[Ru+2].c1ccc(-c2ccccn2)nc1.c1ccc(-c2ccccn2)nc1 [Complex 1, [Ru(bpy)2(L-1a)]Cl2]	around 100 nm	2.1%	449 nm	635 nm	165 ns	225 ns	599 ns	355 ns	> 100 µM	NPD ^b	> 100 µM	ε ([2]; MeCN (298 K)): 1.2 × 10^4 M^–1 cm^–1; λabs ([2]; MeCN (298 K)): 450 nm; λem ([2]; MeCN (298 K)): 625 nm; ε [2, 10]: 1.1 × 10^4 M^–1 cm^–1; Φ (luminescence quantum yield) [2, 10]: 5.6%; contribution of τ1 (short-lived component) to the decay ([3]; Tris-HCl buffer, biexponential fit): less than 1%; τ2 [3, 12]: 672 ns; contribution of τ1 to the decay [3, 13]: 6.6%; contribution of τ2 to the decay [3, 13]: 93.4%; uptake in ER+ cells compared to ER– cells (ICP-MS) [8]: slightly higher accumulation in ER– cells than in ER+ cells; intracellular luminescence, ER+ versus ER– cells (microscopy) [9]: no notable difference in luminescence between the two cell lines
